Key:
[1] = system: patients with atrial fibrillation; test: Placebo-controlled ascending dose study of intravenous tedisamil: conversion to normal sinus rhythm, patients with atrial fibrillation; assay type: in vivo, human; conditions: for Conversion to NSR at any time within 2.5 hrs after start of infusion (%) / Conversion to NSR at any time within 2.5 hrs after start of infusion (converted/total): atrial fibrillation, Male, ITT, DC cardioversion excluded; for Percentage of patients converted to normal sinus rhythm at any time within 2.5 hours after the initiation of the infusion: patients with atrial fibrillation taking beta-blockers
Procedure: (§1) A Multi-Center, Double-Blind, Randomized, Placebo-Controlled, Sequential Ascending Dose Groups Study to evaluate the Efficacy and Safety of Intravenous Tedisamil in the Rapid Conversion to Normal Sinus Rhythm in Patients with Atrial Fibrillation or Flutter was performed.
(§2) • Tedisamil (0.4 mg/kg body weight) • Tedisamil (0.6 mg/kg body weight) • Placebo • Dosages were given as a 30 minute intravenous infusion regimen. 1. Study Design
(§3) This multicenter trial was a double-blind, randomized, placebo-controlled, ascending dose groups study comparing the efficacy and safety of intravenous tedisamil treatment versus placebo in symptomatic patients with atrial fibrillation or flutter (>3 hours and <48 hours). The primary efficacy endpoint of this study was the termination of atrial fibrillation or flutter (for at least 60 seconds) within 2.5 hours after start of the infusion.
(§4) Following screening and baseline assessments, eligible patients were randomized to tedisamil or placebo with a sequential dose escalation approach. In the first stage, patients received 0.4 mg tedisamil/kg body weight or placebo over a 30 minutes infusion period, with half the dose infused during the first 10 minutes and half the dose infused over the remaining 20 minutes. After interim safety evaluation, in the second stage, patients received 0.6 mg tedisamil/kg body weight or placebo, with the same infusion regimen.
(§5) Patients were discharged from the telemetry unit 24 hours post infusion and safety follow up was to be obtained after 28 days. Blinded reviews of 12-lead ECGs (including 60 seconds rhythm strip) and 24 hour Holters to adjudicate the clinical endpoint (conversion to normal sinus rhythm) were performed centrally according to standard guidelines.
(§6) Tedisamil dihydrochloride, 0.4 mg/kg body weight, 0.6.mg/kg body weight was administered intravenously. The total infusion time was 30 minutes, with half the dose infused within 10 minutes, and half the dose infused within the remaining 20 minutes.
(§7) The percentage of patients converted to normal sinus rhythm (for at least 60 seconds) at any time within 2.5 hours after the initiation of the infusion of study drug.
(§8) 6.1.2 Secondary Efficacy • The percentage of patients converted to normal sinus rhythm (for at least 60 seconds) at any time within 2.5 hrs and remaining in sinus rhythm until 2.5 hours after initiation of the intravenous infusion of tedisamil versus placebo. • The percentage of patients converted to normal sinus rhythm (for at least 60 seconds) at any time within 24 hours after initiation of the intravenous infusion of tedisamil versus placebo. • The percentage of patients converted to normal sinus rhythm (for at least 60 seconds) at any time within 24 hrs and remaining in sinus rhythm until 24 hours after initiation of the intravenous infusion of tedisamil versus placebo. • The percentage of patients converted to normal sinus rhythm (for at least 60 seconds) at any time within 2.5 hrs and remaining in sinus rhythm until 24 hours after initiation of the intravenous infusion of tedisamil versus placebo. • The time to conversion after the start of the infusion of tedisamil versus placebo. • The dose- and concentration-response relationships of tedisamil versus placebo.
(§9) The intent-to-treat patient sample was analyzed for efficacy. All tests were two-sided and a p-value <0.05 was considered significant. Differences in percentages of conversion were compared among the treatment groups using the Pearson chi-square statistic. Safety analysis was conducted on the safety patient sample. Numbers and percentages of patients with adverse events were calculated for each treatment group, using MedDRA preferred terms and body systems. Descriptive statistics were summarized by treatment group for changes from baseline in QT, heart rate and blood pressure. […]

[2] = system: patients with atrial flutter; test: Placebo-controlled ascending dose study of intravenous tedisamil: conversion to normal sinus rhythm, patients with atrial flutter; assay type: in vivo, human; conditions: for Conversion to NSR at any time within 2.5 hrs after the start of infusion (patients converted out of total) / Conversion to NSR at any time within 2.5 hrs after the start of infusion (percentage of patients) / Conversion to NSR at any time within 2.5 hrs and remaining in NSR until 2.5 hrs after the start of infusion (patients out of total) / Conversion to NSR at any time within 2.5 hrs and remaining in NSR until 2.5 hrs after the start of infusion (percentage of patients) / Conversion to NSR at any time within 2.5 hrs and remaining in NSR until 24 hrs after the start of infusion (patients out of total) / Conversion to NSR at any time within 2.5 hrs and remaining in NSR until 24 hrs after the start of infusion (percentage of patients) / Conversion to NSR at any time within 24 hrs after the start of infusion (patients out of total) / Conversion to NSR at any time within 24 hrs after the start of infusion (percentage of patients) / Conversion to NSR at any time within 24 hrs and remaining in NSR until 24 hrs after the start of infusion (patients out of total) / Conversion to NSR at any time within 24 hrs and remaining in NSR until 24 hrs after the start of infusion (percentage of patients): patients with atrial flutter; for Conversion to NSR at any time within 2.5 hrs after start of infusion (converted/total) / Conversion to NSR at any time within 2.5 hrs after start of infusion (%): Atrial Flutter, ITT patient sample, patients with DC cardioversion excluded
Procedure: as §1, §2, §3, §4, §5, §6, §7, §8, §9

[3] = 0.4 mg/kg iv two-step 30 minute infusion
[4] = 0.6 mg/kg iv two-step 30 minute infusion

Compound: C1CCC2(C1)C1CN(CC3CC3)CC2CN(CC2CC2)C1 [Tedisamil, N,N′-dicyclopropylmethyl-9,9-tetramethylene-3,7-diazabicyclo[3,3,1]nonane]
- Conversion to NSR at any time within 2.5 hrs after start of infusion (%) ([1]; <65 yrs, 0.6 mg/kg): 72.2%
- Conversion to NSR at any time within 2.5 hrs after start of infusion (converted/total) ([1]; <65 yrs, 0.6 mg/kg): 13/18
- Conversion to NSR at any time within 2.5 hrs after start of infusion (%) ([1]; >=65 yrs, 0.4 mg/kg): 51.4%
- Conversion to NSR at any time within 2.5 hrs after start of infusion (converted/total) ([1]; >=65 yrs, 0.4 mg/kg): 8/15
- Conversion to NSR at any time within 2.5 hrs after start of infusion (%) ([1]; >=65 yrs, 0.6 mg/kg): 62.5%
- Conversion to NSR at any time within 2.5 hrs after start of infusion (converted/total) ([1]; >=65 yrs, 0.6 mg/kg): 5/8
- Percentage of patients converted to normal sinus rhythm at any time within 2.5 hours after the initiation of the infusion ([1]; 0.4 mg group): 52%
- Percentage of patients converted to normal sinus rhythm at any time within 2.5 hours after the initiation of the infusion ([1]; 0.6 mg group): 60%
- Conversion to NSR at any time within 2.5 hrs after the start of infusion (patients converted out of total) [2, 3]: 1 out of 9
- Conversion to NSR at any time within 2.5 hrs after the start of infusion (percentage of patients) [2, 3]: (11%)
- Conversion to NSR at any time within 2.5 hrs and remaining in NSR until 2.5 hrs after the start of infusion (patients out of total) [2, 3]: 1 out of 9
- Conversion to NSR at any time within 2.5 hrs and remaining in NSR until 2.5 hrs after the start of infusion (percentage of patients) [2, 3]: (11%)
- Conversion to NSR at any time within 2.5 hrs and remaining in NSR until 24 hrs after the start of infusion (patients out of total) [2, 3]: 1 out of 7
- Conversion to NSR at any time within 2.5 hrs and remaining in NSR until 24 hrs after the start of infusion (percentage of patients) [2, 3]: (14%)
- Conversion to NSR at any time within 24 hrs after the start of infusion (patients out of total) [2, 3]: 2 out of 7
- Conversion to NSR at any time within 24 hrs after the start of infusion (percentage of patients) [2, 3]: (29%)
- Conversion to NSR at any time within 24 hrs and remaining in NSR until 24 hrs after the start of infusion (patients out of total) [2, 3]: 2 out of 7
- Conversion to NSR at any time within 24 hrs and remaining in NSR until 24 hrs after the start of infusion (percentage of patients) [2, 3]: (29%)
- Conversion to NSR at any time within 2.5 hrs after the start of infusion (percentage of patients) ([2]; 0.4 mg/kg iv two-step 30 minute infusion, listed as tedisamil): 11%
- Conversion to NSR at any time within 2.5 hrs after the start of infusion (patients converted out of total) [2, 4]: 3 out of 11
- Conversion to NSR at any time within 2.5 hrs after the start of infusion (percentage of patients) [2, 4]: (27%)
- Conversion to NSR at any time within 2.5 hrs and remaining in NSR until 2.5 hrs after the start of infusion (patients out of total) [2, 4]: 3 out of 11
- Conversion to NSR at any time within 2.5 hrs and remaining in NSR until 2.5 hrs after the start of infusion (percentage of patients) [2, 4]: (27%)
- Conversion to NSR at any time within 2.5 hrs and remaining in NSR until 24 hrs after the start of infusion (patients out of total) [2, 4]: 3 out of 7
- Conversion to NSR at any time within 2.5 hrs and remaining in NSR until 24 hrs after the start of infusion (percentage of patients) [2, 4]: (43%)
- Conversion to NSR at any time within 24 hrs after the start of infusion (patients out of total) [2, 4]: 3 out of 7
- Conversion to NSR at any time within 24 hrs after the start of infusion (percentage of patients) [2, 4]: (43%)
- Conversion to NSR at any time within 24 hrs and remaining in NSR until 24 hrs after the start of infusion (patients out of total) [2, 4]: 3 out of 7
- Conversion to NSR at any time within 24 hrs and remaining in NSR until 24 hrs after the start of infusion (percentage of patients) [2, 4]: (43%)
- Conversion to NSR at any time within 2.5 hrs after the start of infusion (percentage of patients) ([2]; 0.6 mg/kg iv two-step 30 minute infusion, listed as tedisamil): 27%
- Conversion to NSR at any time within 2.5 hrs after start of infusion (converted/total) ([2]; Female, 0.4 mg/kg): 0/2
- Conversion to NSR at any time within 2.5 hrs after start of infusion (%) ([2]; Female, 0.6 mg/kg): 33.3%
- Conversion to NSR at any time within 2.5 hrs after start of infusion (converted/total) ([2]; Female, 0.6 mg/kg): 2/6
- Conversion to NSR at any time within 2.5 hrs after start of infusion (%) ([2]; Male, 0.4 mg/kg): 14.3%
- Conversion to NSR at any time within 2.5 hrs after start of infusion (converted/total) ([2]; Male, 0.4 mg/kg): 1/7
- Conversion to NSR at any time within 2.5 hrs after start of infusion (%) ([2]; Male, 0.6 mg/kg): 20.0%
- Conversion to NSR at any time within 2.5 hrs after start of infusion (converted/total) ([2]; Male, 0.6 mg/kg): 1/5

— US7087620B2, “Liquid pharmaceutical formulations containing 3,7-diazabicyclo[3,3,1]nonane compounds and methods of treatment relating to anti-arrhythmic events” (Solvay Pharmaceuticals GmbH, priority 2002, dated 2006)
